Results published in patent publication US20250136556A1, “NOVEL MODULATORS OF THE ARYL HYDROCARBON RECEPTOR AND METHODS OF USE THEREOF” (Allianthera (Suzhou) Biopharmaceutical Co., Ltd., priority 2021, published 2025).
Where two headings read alike, the source gives them in different places.

How the values were obtained:
[1] = test system: IL-6 gene expression in human primary M1 macrophage cells; assay: AHR-regulated IL-6 inhibition in human primary M1 macrophage (qPCR); type: cell-based; conditions: LPS/IFN-gamma/GM-CSF, 24 hours; for IC50: read-out: M1 assay IL6 -IC50
Method: Human M1 macrophage was differentiated from PBMC. Briefly, at day 1, monocytes were isolated from human PBMC using EasySe Human Monocyte Enrichment Kit without CD16 Depletion (Stemcell, 19058). The isolated monocytes were seeded at 3×10^7 cells in 15 cm dish using 30 ml medium containing 50 ng/ml GM-CSF (R&D, 215-GM-050/CF). At day 5, 30 ml fresh medium containing 50 ng/ml GM-CSF was added. At day 8, 1.5×10^5 cells/well were re-seeded into 24 wells plate, and 500 ul medium containing 10 ng/ml LPS (Sigma, L7770), 20 ng/ml IFN-gamma (PeproTech, 300-02), 50 ng/ml GM-CSF and the test compounds was added. […] The IL-6 expression was inhibited with AHR agonists described in literature as the positive inhibition control, alternatively the un-stimulated cells were used as the negative inhibition control. […] The primers for human GAPDH (F: […]; R: […]) and human IL-6 (F: […]; R: […]) were used to analyze fold expression of IL-6 of GAPDH by quantitative PCR.

[2] = test system: Human Nuclear Factor (erythroid-derived2)-like 2 (Nrf2); assay: Nrf2 transcription factor activity reporter assay in human cell line (INDIGO luciferase reporter); type: cell-based; conditions: reporter cells; for EC50: 24 hours incubation; for Nrf2 % activation to Tapinarof at 9 μM: 24 hours, value in brackets
Method: The Nrf2 reporter assay was performed following the protocol of the Human Nuclear Factor (erythroid-derived2)-like 2 (Nrf2) Reporter Assay System (INDIGO Bioscience, #IB10001). Nrf2 Reporter Cell was thawed and pre-incubated in Cell Recovery Medium (CRM) for 6 hours. The media was then removed and the cells were incubated with Compound Screening Medium (CSM) in the absence (negative control) or presence of increasing concentrations of test compounds (typical dilution: 128 pM, 640 pM, 3.2 nM, 16 nM, 80 nM, 400 nM, […] in duplicates) for 24 hours. For positive control, cells activated with CDDO or Nrf2 agonists described in literature. Following 24 hours incubation, the media was removed and Luciferase Detection Reagent (LDR) added. The firefly luciferase activity was quantified using a plate reader. Results were normalized by positive and negative controls.

[3] = target: T1, Human Aryl Hydrocarbon Receptor (AHR) (Homo sapiens, UniProt P35869); assay: AHR agonist reporter assay in human cell line (INDIGO luciferase reporter); type: cell-based; conditions: reporter cells; for EC50: 24 hours incubation; for AHR % activation to Tapinarof at 1 μM: 24 hours, value in brackets;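 for all read-outs here: firefly luciferase luminescence read on a plate reader, values normalized against positive and negative controls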
T1 construct: purchased INDIGO Bioscience IB06001-32; host or cells: AHR Reporter Cell (proprietary kit cells)
T1 sequence (P35869 11-848): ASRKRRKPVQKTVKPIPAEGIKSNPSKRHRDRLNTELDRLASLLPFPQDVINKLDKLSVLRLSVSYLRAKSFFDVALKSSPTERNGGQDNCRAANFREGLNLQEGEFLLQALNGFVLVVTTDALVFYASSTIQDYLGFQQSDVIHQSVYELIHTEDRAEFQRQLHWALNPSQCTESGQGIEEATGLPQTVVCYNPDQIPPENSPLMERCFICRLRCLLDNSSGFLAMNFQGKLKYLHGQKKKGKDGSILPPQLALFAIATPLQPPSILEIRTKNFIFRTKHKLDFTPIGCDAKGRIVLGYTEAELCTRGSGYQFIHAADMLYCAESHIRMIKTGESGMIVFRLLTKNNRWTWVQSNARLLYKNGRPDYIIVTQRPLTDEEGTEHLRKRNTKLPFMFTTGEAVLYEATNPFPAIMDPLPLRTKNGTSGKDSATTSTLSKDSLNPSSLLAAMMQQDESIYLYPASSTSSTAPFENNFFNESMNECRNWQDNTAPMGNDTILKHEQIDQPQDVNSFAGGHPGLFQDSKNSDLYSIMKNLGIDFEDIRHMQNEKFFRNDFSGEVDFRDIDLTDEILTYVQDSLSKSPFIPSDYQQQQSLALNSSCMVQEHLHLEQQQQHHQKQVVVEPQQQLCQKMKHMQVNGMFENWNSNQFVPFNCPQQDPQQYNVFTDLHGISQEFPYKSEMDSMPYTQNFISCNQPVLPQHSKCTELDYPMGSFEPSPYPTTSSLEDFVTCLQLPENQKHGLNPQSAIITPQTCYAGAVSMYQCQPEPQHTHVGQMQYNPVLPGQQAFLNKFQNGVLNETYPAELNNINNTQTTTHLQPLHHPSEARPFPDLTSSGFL
Method: The AHR reporter assay was performed following the protocol of the Human Aryl Hydrocarbon Receptor (AHR) Reporter Assay System (INDIGO Bioscience, #IB06001-32). AHR Reporter Cell was thawed and pre-incubated in Cell Recovery Medium (CRM) for 6 hours. […] Following 24 hours incubation, the media was removed and Luciferase Detection Reagent (LDR) added. The firefly luciferase activity was quantified using a plate reader. Results were normalized by positive and negative controls.

[4] = test system: AHR-regulated gene CYP1A1; assay: AHR-regulated CYP1A1 expression in human monocytic U937 cell line (qPCR); conditions: U937 cells, 16 hours, CYP1A1 relative to GAPDH
Method: To evaluate the AHR agonist activity of the test compounds, quantitative PCR analysis was used to determine expression level of the AHR-regulated gene CYP1A1 in a human monocytic U937 cell line. U937 cells were seeded at a concentration of 5×10^5 cells/well in 200 μL of growth medium in 96-well cell culture microplates. CYP1A1 expression was induced with AHR agonists described in literature as a positive control or the test compounds for 16 hours. […] Unstimulated cells were used as the negative control. Taqman probes for human CYP1A1 (Hs01054797_g1) and human GAPDH (Hs02786624_g1) were used to analyze fold expression of CYP1A1 of GAPDH.

[5] = first line of cell, read-out: Nrf2 reEC50
[6] = second line of cell, read-out: Nrf2 EC50, second line of cell (head does not name it)
[7] = first line of cell, read-out: AHR reEC50
[8] = second line of cell, read-out: AHR abEC50

SMILES	M1 assay IL6 -max % inhibition (% to no treatment) [1]	IC50 [1]	EC50 [2, 5]	EC50 [2, 6]	Nrf2 % activation to Tapinarof at 9 μM [2]	EC50 [3, 7]	EC50 [3, 8]	AHR % activation to Tapinarof at 1 μM [3]	CYP1A1 (% activation to Tapinarof at 1 μM) [4]
CC(C)c1c(O)cc(-c2cc(F)c3cnc(N)nc3c2)cc1F [Compound 149]	91.10%	0.5 nM	–	–	–	–	–	–	–
CC(C)c1c(O)cc(-c2cc(F)c3ncccc3c2)cc1F [Compound 145]	94.10%	1.9 nM	–	–	–	–	–	–	–
CC(C)c1c(O)cc(-c2cc3ccccc3cn2)cc1O [Compound 46]	–	–	16.3 nM	166 nM	69.3%	72.7 nM	39 nM	95.8%	95.3%
CC(C)c1ncc(-c2ccc3ccccc3n2)cc1O [Compound 98]	–	–	40 nM	139 nM	83.6%	176000 nM	403 nM	71.2%	83.6%
CC(C)c1c(O)cc(-c2ccc3cc(F)ccc3n2)cc1F [Compound 143]	91.80%	2.7 nM	–	–	–	–	–	–	–
CC(C)c1c(O)cc(-c2cnc3ccccc3c2)cc1O [Compound 48]	89.60%	3 nM	14.5 nM	29.6 nM	84.4%	64.3 nM	57.5 nM	69.5%	78.4%
CC(C)c1ncc(/C=C/c2cccc(F)c2)cc1O [Compound 113, (E)-5-(3-fluorostyryl)-2-isopropylpyridin-3-ol]	67.80%	120 nM	–	–	–	–	298 nM	–	–
CC(C)c1c(O)cc(/C=C/c2ccccc2)cc1O [Tapinarof, reference compound]	–	–	55 to 75 nM	–	–	–	–	100%	100%
CC(C)c1ncc(-c2nc3ccccc3o2)cc1O [Compound 100]	–	–	200 nM	890 nM	62.3%	21.9 nM	> 1000 nM	49.7%	90.5%
CC(C)c1c(O)cc(-c2cc(F)c3cnc(N)nc3c2)cc1O [Compound 39]	89.60%	0.2 nM	–	–	–	–	3.58 nM	–	–
CC(C)c1ncc(/C=C/c2ccccc2F)cc1O [Compound 112, 5-[(E)-2-(2-fluorophenyl)ethenyl]-2-isopropylpyridin-3-ol]	77.90%	1.57 nM	–	97 nM	–	–	99 nM	–	–
CCCc1c(O)cc(-c2ccc3c(C)ccnc3c2)cc1F [Compound 161]	91.30%	1.19 nM	–	–	–	–	–	–	–
COc1cc(-c2nc3ccccc3o2)cc(O)c1C(C)C [Compound 122, 5-(benzo[d]oxazol-2-yl)-2-isopropyl-3-methoxyphenol]	–	–	2640 nM	–	25.7%	254 nM	395 nM	64.4%	39.3%
CC(C)c1c(O)cc(-c2ccc3ncccc3c2F)cc1F [Compound 140]	92.30%	0.13 nM	–	–	–	–	–	–	–
CC(C)c1c(O)cc(/C=C/c2ccccc2)cc1F [Compound 135]	95.30%	1.7 nM	–	–	–	–	38.6 nM	–	–
Cc1ccnc2cc(-c3cc(O)c(C(C)C)c(F)c3)ccc12 [Compound 147]	91.60%	0.03 nM	–	–	–	–	–	–	–
Cc1ccnc2cc(-c3cc(O)c(C(C)C)c(O)c3)ccc12 [Compound 22]	77.20%	0.05 nM	–	–	–	–	2.12 nM	–	–
CC(C)c1c(O)cc(-c2ccc3cnccc3c2F)cc1F [Compound 139]	85.80%	5 nM	–	–	–	–	–	–	–
CC(C)c1ncc(-c2cc3ccccc3cn2)cc1O [Compound 97]	–	–	249 nM	501 nM	67.2%	1620 nM	569 nM	62.6%	78.9%
CCCc1c(O)cc(/C=C/c2ccccc2)cc1F [Compound 125, 3-fluoro-5-[(E)-2-phenylethenyl]-2-propylphenol]	91.70%	1.35 nM	–	–	–	–	11.5 nM	–	–
CC(C)c1ncc(-c2ccc3ccccc3n2)cc1N [Compound 119, 2-isopropyl-5-(quinolin-2-yl)pyridin-3-amine]	–	–	125 nM	129 nM	97.8%	66 nM	–	16.4%	0.4%
COc1cc(/C=C/c2ccccc2)cc(O)c1C(C)(C)O [Compound 111]	–	–	–	57 nM	–	–	39 nM	–	–
CCCc1c(O)cc(-c2cnc3c(F)c(F)ccc3c2)cc1F [Compound 155]	89.10%	3.5 nM	–	–	–	–	–	–	–
CC(C)c1ncc(-c2nc3ccccc3o2)cc1N [Compound 121, 5-(1,3-benzoxazol-2-yl)-2-isopropylpyridin-3-amine]	–	–	–	120 nM	–	–	> 100 nM	–	–
